For data set [1], the target named is T1, es nucleoside transporter (Homo sapiens, UniProt Q99808).
T1 construct: endogenous in cells; host or cells: K562 human chronic myelogenous leukemia cells (intact cells)
T1 sequence (Q99808 1-456): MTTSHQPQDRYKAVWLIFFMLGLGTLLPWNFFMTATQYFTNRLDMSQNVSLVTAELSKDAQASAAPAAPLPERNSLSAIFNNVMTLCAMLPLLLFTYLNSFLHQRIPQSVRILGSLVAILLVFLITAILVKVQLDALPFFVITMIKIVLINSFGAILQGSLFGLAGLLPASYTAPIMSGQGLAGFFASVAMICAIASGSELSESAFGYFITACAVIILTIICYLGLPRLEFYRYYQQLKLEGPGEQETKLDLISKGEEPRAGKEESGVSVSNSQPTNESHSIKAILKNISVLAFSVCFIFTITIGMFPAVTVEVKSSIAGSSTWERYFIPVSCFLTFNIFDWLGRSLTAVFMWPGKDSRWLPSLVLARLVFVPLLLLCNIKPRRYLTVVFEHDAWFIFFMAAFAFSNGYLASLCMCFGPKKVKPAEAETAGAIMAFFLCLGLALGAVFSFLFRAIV
Description: Flow cytometric es nucleoside transporter binding assay (displacement of 5-(SAENTA)-X8-fluorescein) in K562 cells. The conditions noted are these: for Ki: 25 nM 5-(SAENTA)-X8-fluorescein, 45 minutes, room temperature, read-out: Flow Cytometrically-Determined Ki Values; for Ki at the es transporter, in words: displacement of 5-(SAENTA)-X8-fluorescein. Here is the method: FIG. 1 is a graph showing the equilibrium displacement of SAENTA-fluorescein ligand by of new tetrahydroisoquinoline constrained NBMPR analogs in K562 cells. Cells are incubated with 25 nM SAENTA fluorescein in the presence of inhibitor for 45 minutes at room temperature and analyzed by flow cytometry.
Exemplary compounds are tested to determine their es nucleoside transporter binding ability by a flow cytometric assay (Buolamwini et al., 1994). Human leukemia K562 cells growing in RPMI 1640 medium are washed once and suspended at 1.6×10^6 cells/ml in phosphate-buffered saline at pH 7.4, and incubated with 5-(SAENTA)-X8-fluorescein (25 nM) in the presence or absence of varying concentrations of test compounds at room temperature for 45 minutes. Flow cytometric measurements for cell-associated fluorescence are then performed with a FACSCalibur (Becton Dickinson, San Jose, Calif.) equipped with a 15 mW-argon laser (Molecular Resources Flow Cytometry Facility, University of Tennessee Health Sciences Center). In each assay, 5,000 cells are analyzed from suspensions of 4×10^5 cells/ml. The units of fluorescence are arbitrary channel numbers. Percentage (%) of control (i.e. es transporter-specific fluorescence in the presence of SAENTA-fluor without test compounds) is calculated for each sample by the equation below.
[formula] • where SFs is the es transporter-specific fluorescence of test samples, and SFf is the es transporter-specific fluorescence of the SAENTA-fluor ligand standard.
The results are fed into the PRISM program (GraphPad, San Diego, Calif.) to derive concentration-dependent curves using nonlinear regression, as shown in FIG. 1. From these curves, the IC50 values are obtained that are used to compare abilities of the new compounds to displace the es transporter-specific ligand (5-(SAENTA)-X8-fluorescein (Buolamwini et al., 1994).
Examples of the present invention (2-5) are tested along with 6-(1,2,3,4-tetrahydroisoquinolinyl)purine riboside (23) as es transporter binding ligands by a facile competitive binding flow cytometric assay using the K562 chronic myelogenous leukemia cell line. The high-affinity es transporter fluorescent ligand, 5-(SAENTA)-X8-fluorescein is used as the competitive ligand to be displaced by the test compounds.

Data set [2] has as its system nucleoside transporter (uridine uptake in JB6 cells). In words: Inhibition of [3H]uridine uptake in JB6 cells. Type of data set: cell-based. The conditions noted are these: 1 μM [3H]uridine, 10-second uptake. The method, then:
FIG. 2 is a graph showing inhibition of [^3H]uridine uptake by NBMPR (•) and a novel tetrahydroisoquinoline analogue compound 12 (◯) in JB6 cells. Cells in logarithmic phase of growth are incubated with 1 μM […] and 10-second uptake measurements were performed as described in Paterson et al. (1983). The data points are mean ±std for triplicate samples.
Cells in logarithmic phase of growth are incubated with 1 μM [^3H]uridine and 10-second uptake measurements are performed as described in Paterson et al. (1983).

In a further data set the test system is rat heart. In words: Rat heart isolated model, recovery from global ischemia. Type of data set: in vivo. The note with it: for Percentage recovery relative to control levels: global ischemia; for Change in EDP / Recovery from 30 min Global Ischemia (LVDP): treatment during ischemia and reperfusion, mean SEM; for Change in EDP: end diastolic pressure; for Recovery from 30 min Global Ischemia (LVDP): left ventricular developed pressure. The source says: In addition, treatment with compound 4 also appears to keep the heart more relaxed than treatment with either control or NBMPR, an added benefit not seen with the standard agent.

A further data set has as its target T2, es transporter (Homo sapiens, UniProt Q99808).
T2 sequence (Q99808 1-456): T1 sequence (Q99808 1-456)
The conditions noted are these: product of in vivo loss of the nitrobenzyl group of NBMPR; cited from earlier work.

We go through 7 molecules from patent publication US7582616B2, “Nucleoside transport inhibitors” (Quesrema Enterprises LLC, priority 2003, dated 2009).

SMILES strings stand for the structures. Marks after values point to notes of the source that are not given here.

On to `O=[N+]([O-])c1ccc2c(c1)CN(c1ncnc3c1ncn3[C@@H]1O[C@H](CO)[C@@H](O)[C@H]1O)CC2` [Compound 4], for which, in data set [1], the “IC50 / binding to the es transporter (inhibition of SAENTA-fluor binding), in words, FIG. 1” value is “low nanomolar range” and the inhibitory constant (Ki) came out at 0.45 nM. Moreover, the “IC50 for inhibition of uridine uptake, FIG. 2” value in data set [2] is “single digit nanomolar range”. In addition, in the data set with rat heart, the “Percentage recovery relative to control levels” value is “triples”, the “Change in EDP” value worked out at 52.5 ± 6.6%^f and the “Recovery from 30 min Global Ischemia (LVDP)” value is on record as 33.60 ± 9.8% (n = 4)^e.
For `O=[N+]([O-])c1cccc2c1CN(c1ncnc3c1ncn3[C@@H]1O[C@H](CO)[C@@H](O)[C@H]1O)CC2` [Compound 5], in data set [1], the “IC50 / binding to the es transporter (inhibition of SAENTA-fluor binding), in words, FIG. 1” value is listed as “much less potent inhibitors”; the inhibition constant Ki worked out at 300 nM; the “Ki at the es transporter, in words” value was “high nanomolar concentrations”.
In the case of `OC[C@H]1O[C@@H](n2cnc3c(N4CCc5ccccc5C4)ncnc32)[C@H](O)[C@@H]1O` [Compound 23, 6-(1,2,3,4-tetrahydroisoquinolinyl)purine riboside], the Ki in data set [1] amounted to 150 nM.
As to `OC[C@H]1O[C@@H](n2cnc3c(=S)nc[nH]c32)[C@H](O)[C@@H]1O` [mercaptopurine riboside], the “Decrease in es transporter affinity compared with NBMPR” value at es transporter was at most 1000 fold.
Consider `O=[N+]([O-])c1cccc2c1CCN(c1ncnc3c1ncn3[C@@H]1O[C@H](CO)[C@@H](O)[C@H]1O)C2` [Compound 2], for which, in data set [1], the “IC50 / binding to the es transporter (inhibition of SAENTA-fluor binding), in words, FIG. 1” value is given as “much less potent inhibitors”; the Ki was 250 nM; the “Ki at the es transporter, in words” value was “high nanomolar concentrations”.
In the case of `O=[N+]([O-])c1ccc(CSc2ncnc3c2ncn3[C@@H]2O[C@H](CO)[C@@H](O)[C@H]2O)cc1` [Compound 1, nitrobenzylthioinosine, reference compound], in the data set with rat heart, the “Percentage recovery relative to control levels” value is “doubles”, the “Change in EDP” value was 65.2 ± 3.2% and the “Recovery from 30 min Global Ischemia (LVDP)” value was 24.40 ± 3.6% (n = 5)^d.
On to `O=[N+]([O-])c1ccc2c(c1)CCN(c1ncnc3c1ncn3[C@@H]1O[C@H](CO)[C@@H](O)[C@H]1O)C2` [Compound 3], for which the melting point was in the range of 148 to 149 °C. For the same molecule, in data set [1], the “IC50 / binding to the es transporter (inhibition of SAENTA-fluor binding), in words, FIG. 1” value is listed as “bound as tightly as the prototype compound, NBMPR” and the Ki turned out to be 15 nM.
